According to patent publication US20200071361A1, “ENGINEERED ANTIMICROBIAL AMPHIPHILIC PEPTIDES AND METHODS OF USE” (priority 2017, published 2020):
In brackets after ≈: the same amount, converted by molar mass. Several values for one entry are separate records, joined by “and”; a condition that tells them apart may be missing. Equal entries are not always repeated. Where two headings read alike, the source gives them in different places. No end group written: not given here.

Tests used:
[1] = tested on: Acinetobacter spp. isolates (n = 104); experiment: Broth microdilution MIC, clinical isolate panel; format: cell-based; conditions: Acinetobacter spp. (n = 104)
Protocol: (§1) Comparator antibiotics were supplied by Micromyx, and stock solutions were prepared on the first day of testing using solvents recommended by CLSI (1). Stock solutions of all compounds were made at 40× the final testing concentration and stored at −80° C. prior to testing. Information regarding compound source, catalog and lot number, testing concentrations and drug diluent for the comparators and test agent are detailed below in Table 3.
(§2) The test organisms evaluated in this study consisted of clinical isolates from the Micromyx Repository and reference isolates from the American Type Culture Collection (ATCC; Manassas, Va.). The clinical isolates were obtained from USA hospitals. Upon initial receipt at Micromyx, the organisms were sub-cultured onto an appropriate agar medium. Following incubation, colonies were harvested from these plates and cell suspensions prepared and frozen at −80° C. with a cryoprotectant. Prior to testing, the isolates were streaked from frozen vials onto Trypticase Soy Agar with 5% sheep blood (Becton Dickenson [BD]; Sparks, Md.; Lot Nos. 7173618, 7166759, 7208688, 72144895, 7228505 and Remel Lenexa, Kans. Lot No. 212574). Plates were incubated at 35° C. overnight.
(§3) Mueller Hinton II broth (MHB II; BD; Lot Nos. 6258541 and 7143896) was used for MIC testing of aerobic organisms.
(§4) MIC values were determined using a broth microdilution procedure described by CLSI (1, 3). Automated liquid handlers (Multidrop 384, Labsystems, Helsinki, Finland; Biomek 2000 and Biomek FX, Beckman Coulter, Fullerton Calif.) were used to conduct serial dilutions and liquid transfers.
(§5) To prepare the drug mother plates, which would provide the serial drug dilutions for the replicate daughter plates, the wells of columns 2-12 of standard 96-well microdilution plates (Costar 3795) were filled with 150 μl of the designated diluent for each row of drug. The test articles and comparator compounds (300 μl at 40× the highest concentration to be tested) were dispensed into the appropriate wells in column 1. The Biomek 2000 was then used to make 2-fold serial dilutions in the mother plates from column 1 through column 11. The wells of Column 12 contained no drug and served as the organism growth control wells for the assay.
(§6) The daughter plates were loaded with 185 μL per well of MHB II using the Multidrop 384. The daughter plates were completed on the Biomek FX instrument which transferred 5 µL of drug solution from each well of a mother plate to the corresponding well of each daughter plate in a single step. A standardized inoculum of each test organism was prepared per CLSI methods (1). The inoculum for each organism was dispensed into sterile reservoirs divided by length (Beckman Coulter), and the Biomek 2000 was used to inoculate the plates. Daughter plates were placed on the Biomek 2000 work surface in reverse orientation so that inoculation took place from low to high drug concentration.
(§7) Plates were stacked 3-4 high, covered with a lid on the top plate, placed in plastic bags, and incubated at 35° C. for 16 to 20 hrs. Following incubation, the microplates were removed from the incubator and viewed from the bottom using a plate viewer. […] The MIC was read and recorded as the lowest concentration of drug that inhibited visible growth of the organism.
(§8) Clinical breakpoints to determine percent resistance within a given organism group were obtained from CLSI (3), with the exception of colistin for K. pneumoniae, Enterobacter spp., and E. coli, which are only available from EUCAST.

[2] = tested on: Escherichia coli isolates (n = 101); experiment: Broth microdilution MIC, clinical isolate panel; format: cell-based; conditions: Escherichia coli (n = 101)
Protocol: as §1, §2, §3, §4, §5, §6, §7, §8

[3] = tested on: Pseudomonas aeruginosa isolates (n = 109); experiment: Broth microdilution MIC, clinical isolate panel; format: cell-based; conditions: Pseudomonas aeruginosa
Protocol: as §1, §2, §3, §4, §5, §6, §7, §8

[4] = tested on: Klebsiella pneumoniae isolates (n = 101); experiment: Broth microdilution MIC, clinical isolate panel; format: cell-based; conditions: Klebsiella pneumoniae (n = 101)
Protocol: as §1, §2, §3, §4, §5, §6, §7, §8

[5] = mouse, in vivo, iv; for Vd: male CD-1 mice
Source text: Male CD-1 mice will be received from an approved vendor and allowed to acclimate for a minimum of two days. Fasting will be not required.
All dosing syringes will be weighed prior to and following dosing. IV doses will be administered as a slow bolus (over ˜30 seconds) via direct venipuncture of a tail vein. All animals will be observed at dosing and each scheduled collection. All abnormalities will be recorded.
Terminal blood samples will be collected via cardiac puncture following inhalation anesthesia.
Sample Processing and Storage: Blood samples will be collected into K2EDTA tubes and stored on wet ice. Whole blood will be processed to plasma by centrifugation (3500 rpm at 5° C.) within 30 minutes of collection. Plasma samples will be split into 2 equal aliquots and each transferred into 96 well plates (matrix tubes) and stored at −80° C. until analysis. Administered doses will be determined gravimetrically.
Pharmacokinetic parameters will be calculated using non-compartmental methods as implemented in the Phoenix® WinNonlin® ver. 6.3 comprehensive TK/PK analysis software program (Pharsight Corporation; Mountain View, Calif.) using an IV infusion model. Pharmacokinetic analysis will be conducted using a 30-minute intravenous infusion time. Therefore, 30 minutes will be added to each sample time point postdose to obtain nominal time for TK analysis. Nominal times and dosage levels will be used for all calculations. Values below the lower limit of quantitation (BLQ) will be assigned a value of zero for the pharmacokinetic calculations. Microsoft® Excel® 2013 will be used for receipt of bioanalytical data, minor formatting, including setting BLQ values to “0”, transfer into WinNonlin® for PK analysis, and calculation of the mean when an approximated value will be excluded. All plasma concentration data from all animals will be included in the analysis. Graphical presentations will be performed using Microsoft® Excel® 2013.

[6] = for AUC(0-inf): AUCinf; for clearance: CL; for half-life: T 1/2, macaque; for Vd: Vss
Protocol: Animals will be obtained from the Test Facility's colony of adult male cynomolgous monkeys (Macaca fascicularis) of Chinese origin. Animals will be weighed prior to dosing.
Animals will be fasted a minimum of 2 hours prior to procedures requiring the administration of ketamine anesthesia. The diet will also be supplemented with other nutrients by feeding items such as raisins or fresh fruits that are presented to the animal as part of an environmental enrichment program. Offering items known to cause diarrhea will be avoided.
Intravenous administration will be via 30 minute infusion into a temporary percutaneous catheter placed into a saphenous vein. Prior to and following dose administration, the catheter will be flushed with 0.5 mL saline prior to removal. All dosing syringes will be weighed prior to and following dosing.
All animals will be observed at dosing and each scheduled collection. All abnormalities will be recorded.
Serial blood samples will be collected via femoral vein (cephalic or saphenous, as necessary). Approximately 1 mL blood samples will be collected into K2EDTA tubes.
Blood samples will be collected into K2EDTA tubes and stored on wet ice. Whole blood will be processed to plasma by centrifugation (2400-2700 rpm at 5° C.) within 30 minutes of collection. Plasma samples will be split into 2 equal aliquots and stored at −80° C. until analysis.
Administered doses will be determined gravimetrically.
Prior to extraction, a known concentration of a mass-adjusted internal standard (IS) will be added to assess recovery and allow for quantitation. Purified samples will be further subjected to high-performance liquid chromatography (HPLC) using C18 300 or 130 angstrom columns prior to MS/MS analysis. Multiple charge states will be observed by MS, so MS/MS will be employed to enable multiple reaction monitoring (MRM) analyses to determine the most MRM transitions with the highest signal-to-noise gain. Compound plasma concentrations will be determined by comparing to and compensating with co-purified IS peak intensity and validated calibrated standard curves.
Toxicokinetic parameters will be calculated using non-compartmental methods as implemented in the Phoenix® WinNonlin® ver. 6.3 comprehensive TK/PK analysis software program (Pharsight Corporation; Mountain View, Calif.) using an IV infusion model. Toxicokinetic analysis will be conducted using a 30-minute intravenous infusion time. Therefore, 30 minutes will be added to each sample time point postdose to obtain nominal time for TK analysis. Nominal times and dosage levels will be used for all calculations. Values below the lower limit of quantitation (BLQ) will be assigned a value of zero for the toxicokinetic calculations. Microsoft® Excel® 2013 will be used for receipt of bioanalytical data, minor formatting, including setting BLQ values to “0”, transfer into WinNonlin® for TK analysis, and calculation of the mean when an approximated value will be excluded. All plasma concentration data from all animals will be included in the analysis. Graphical presentations will be performed using Prism® for Macintosh ver. 7.0a (GraphPad, Inc.; La Jolla, Calif.).

[7] = tested on: Staphylococcus aureus isolates (n = 104); experiment: Broth microdilution MIC, clinical isolate panel; format: cell-based; conditions: Staphylococcus aureus (n = 104), all methicillin-resistant
Protocol: as §1, §2, §3, §4, §5, §6, §7, §8

[8] = cynomolgus monkey, in vivo, iv, 1 mg/kg, macaque, 1 mg/kg IV infusion, Mean
[9] = cynomolgus monkey, in vivo, iv, 3 mg/kg, macaque, 3 mg/kg IV infusion, Mean
[10] = cynomolgus monkey, in vivo, iv, 10 mg/kg, macaque, 10 mg/kg IV infusion, Mean

CC(C)(O/N=C(\C(=O)N[C@@H]1C(=O)N2C(C(=O)[O-])=C(C[n+]3ccccc3)CS[C@H]12)c1csc(N)n1)C(=O)O [Ceftazidime]
MIC50 [1]: > 32 µg/mL
MIC50 [2]: 0.5 µg/mL (≈ 0.915 µM)
MIC ([2]; read-out: Mode (MIC)): 0.25 µg/mL (≈ 0.457 µM)
MIC50 [3]: 4 µg/mL (≈ 7.32 µM)
MIC ([3]; read-out: Mode (MIC)): 2 µg/mL (≈ 3.66 µM)
% R (percent of isolates resistant, clinical breakpoints) [4]: Over 80%
MIC50 [4]: > 32 µg/mL

RRWVRRVRRVWRRVVRVVRRWVRR-NH2 [SEQ ID NO: 1]
AUC(0-inf) ([5]; 3 mg/kg): < 3500 ng·h/mL
C0 ([5]; 3 mg/kg): 26000 ng/mL
Cmax ([5]; 3 mg/kg): 16600 ng/mL
MRT last ([5]; 3 mg/kg): ~0.5 h
Tmax ([5]; 3 mg/kg): 0.303 h
clearance ([5]; 3 mg/kg): ~5 mL/min/kg
half-life ([5]; 3 mg/kg): ~8 h
Vd ([5]; 3 mg/kg, Vss, 3 mg/kg IV): ~0.2 L/kg
Vd ([5]; 3 mg/kg, Vz, 3 mg/kg IV): ~3 L/kg
AUC(0-inf) ([5]; 15 mg/kg): 53800 ng·h/mL
AUC(0-t) ([5]; 15 mg/kg): 53600 ng·h/mL
C0 ([5]; 15 mg/kg): 192000 ng/mL
Cmax ([5]; 15 mg/kg): 163000 ng/mL
MRT last ([5]; 15 mg/kg): 0.579 h
clearance ([5]; 15 mg/kg): 4.65 mL/min/kg
half-life ([5]; 15 mg/kg): 7.45 h
Vd ([5]; 15 mg/kg, Vss, 15 mg/kg IV): 0.208 L/kg
Vd ([5]; 15 mg/kg, Vz, 15 mg/kg IV): 3 L/kg
AUC(0-t) ([6]; cynomolgus monkey, in vivo, iv, 1 mg/kg, AUC0-24hr, macaque, 1 mg/kg IV infusion, Mean): 1090 ng·h/mL
AUC(0-inf) [6, 8]: 1170 ng·h/mL
AUC(0-t) ([6]; cynomolgus monkey, in vivo, iv, 1 mg/kg, AUClast, macaque, 1 mg/kg IV infusion, Mean): 983 ng·h/mL
clearance [6, 8]: 18.5 mL/min/kg
Cmax [6, 8]: 1710 ng/mL
half-life ([6]; cynomolgus monkey, in vivo, iv, 1 mg/kg, 1 mg/kg IV infusion, Mean): 2 h
Vd [6, 8]: 1.38 L/kg
Vd ([6]; cynomolgus monkey, in vivo, iv, 1 mg/kg, macaque, 1 mg/kg IV infusion, individual monkey): 1.53 L/kg
AUC(0-t) ([6]; cynomolgus monkey, in vivo, iv, 3 mg/kg, AUC0-24hr, macaque, 3 mg/kg IV infusion, Mean): 7580 ng·h/mL
AUC(0-inf) [6, 9]: 7710 ng·h/mL
AUC(0-t) ([6]; cynomolgus monkey, in vivo, iv, 3 mg/kg, AUClast, macaque, 3 mg/kg IV infusion, Mean): 7580 ng·h/mL
clearance [6, 9]: 7.18 mL/min/kg
Cmax [6, 9]: 10300 ng/mL
half-life ([6]; cynomolgus monkey, in vivo, iv, 3 mg/kg, 3 mg/kg IV infusion, Mean): 5.2 h
half-life ([6]; cynomolgus monkey, in vivo, iv, 3 mg/kg, 3 mg/kg IV infusion, individual monkey): 4.4 h
Tmax ([6]; cynomolgus monkey, in vivo, iv, 3 mg/kg, Tmax, macaque, 3 mg/kg IV infusion, Mean): 6.6 min
Vd [6, 9]: 1.29 L/kg
Vd ([6]; cynomolgus monkey, in vivo, iv, 3 mg/kg, macaque, 3 mg/kg IV infusion, individual monkey): 1.58 L/kg
AUC(0-t) ([6]; cynomolgus monkey, in vivo, iv, 10 mg/kg, AUC0-24hr, macaque, 10 mg/kg IV infusion, Mean): 50300 ng·h/mL
AUC(0-inf) [6, 10]: 50800 ng·h/mL
AUC(0-t) ([6]; cynomolgus monkey, in vivo, iv, 10 mg/kg, AUClast, macaque, 10 mg/kg IV infusion, Mean): 50300 ng·h/mL
clearance [6, 10]: 6.32 mL/min/kg
Cmax [6, 10]: 38200 ng/mL
half-life ([6]; cynomolgus monkey, in vivo, iv, 10 mg/kg, 10 mg/kg IV infusion, Mean): 4.6 h
half-life ([6]; cynomolgus monkey, in vivo, iv, 10 mg/kg, 10 mg/kg IV infusion, individual monkey): 4.3 h
Vd [6, 10]: 1.26 L/kg
T 1/2 ([6]; macaque, 3 mg/kg IV infusion, individual monkey, 3 mg/kg): 6.3 h and 5 h
T 1/2 ([6]; macaque, 10 mg/kg IV infusion, individual monkey, 10 mg/kg): 4.9 h and 4.6 h

CCC[C@@H]1C[C@@H](C(=O)N[C@@H]([C@H]2O[C@H](SC)[C@H](O)[C@@H](O)[C@H]2O)[C@H](C)Cl)N(C)C1 [Clindamycin]
MIC50 [7]: 0.12 µg/mL (≈ 0.282 µM)

C[C@H]1c2cccc(O)c2C(=O)C2=C(O)[C@]3(O)C(=O)C(C(N)=O)=C(O)[C@@H](N(C)C)[C@@H]3[C@@H](O)[C@@H]21 [Doxycycline]
% R (percent of isolates resistant, clinical breakpoints) [7]: 0%
MIC50 [7]: 0.12 µg/mL (≈ 0.27 µM)
MIC90 [7]: 1 µg/mL (≈ 2.25 µM)
